Data reported in patent US20230227466A1, “SUBSTITUTED THIENOPYRIMIDINES THAT INTERACT WITH THE RAS SUPERFAMILY FOR THE TREATMENT OF CANCERS, INFLAMMATORY DISEASES, RASOPATHIES, AND FIBROTIC DISEASE” (SHY Therapeutics, LLC, priority 2020, published 2023).
pIC50: −log10 of the molar value. Read-outs that look alike come from different tables or passages of the source.

Tests used:
[1] = molecular target: T1, KRas Q61H mutant (Homo sapiens, UniProt P01116, Q61H); test: Ras GTP binding domain inhibition assay (labeled-GTP competition, cell-free)
T1 construct: made in house
How it was run: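 First, the His-tagged protein was captured overnight at 4° C on nickel wells. Second, compound was applied at 20 μM or as a dilution series for IC50 over 3 h. Third, 100 nM Cy3- or Cy5-GTP was added for 45 min. Finally, wells were washed and bound label quantified.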

[2] = system: ERK1/2 phosphorylation in Panc-1 cells; test: Western ERK1/2 cell-based phosphorylation assay; design: species or system human; conditions: at 10 μM, values in brackets < > are activation %, not inhibition
How it was run: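 Panc-1 cells starved overnight in 0.5% FBS, then exposed 6 h at 37 °C to compound at 10 μM final (0.3% DMSO) or serial dilutions for IC50. Stimulation with 1.5 ng/ml EGF for 15 min; phospho-ERK1/2 (Thr202/Tyr204) read by western blot on equal protein loads.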

[3] = Kinetic solubility assay; type: physicochemical; conditions: phosphate-buffered saline pH 7.4 with 2% DMSO, aqueous buffer, kinetic from dmso stock; pH 7.4 PBS + 2% DMSO, 25° C., two hours; effective range approximately 2-400 μM
Procedure: Equipment: Water purification system Millipore Milli-Q Gradient A10 (Millipore, France); Thermomixer R Block, 1.5 ml (Eppendorf, Germany; Cat #5355); Matrix Multichannel Electronic Pipette 2-125 μL, 5-250 μL, 15-1250 μL (Thermo Scientific, USA; Cat ##2011, 2012, 2004); SpectraMax Plus Microplate Reader (Molecular Devices, USA; Product #02196); Multi-Well Plate Vacuum Manifold (Pall Corporation, USA; Product #5014); and Vacuum pump (Millipore, USA; Model #XX5500000)
Analytical System: The measurements were performed using SpectraMax Plus reader in UV-Vis mode. Acquisition and analysis of the data were performed using SoftMax Pro v.5.4 (Molecular Devices) and Excel 2010 data analysis software.
Methods: Briefly, using a 20 mM stock solution of the compound in 100% DMSO dilutions were prepared to a theoretical concentration of 400 μM in duplicates in phosphate-buffered saline pH 7.4 (138 mM NaCl, 2.7 mM KCl, 10 mM K-phosphate) with 2% final DMSO. The experimental compound dilutions in PBS were further allowed to equilibrate at 25° C. on a thermostatic shaker for two hours and then filtered through HTS filter plates using a vacuum manifold. The filtrates of test compounds were diluted 2-fold with acetonitrile with 2% DMSO before measuring.
In parallel, compound dilutions in acetonitrile/PBS (1:1) were prepared to theoretical concentrations of 0 μM (blank), 10 μM, 25 μM, 50 μM, 100 μM, and 200 μM with 2% final DMSO to generate calibration curves. Ondansetron was used as reference compound to control proper assay performance. 200 μL of each sample was transferred to 96-well plate and measured in 200-550 nm range with 5 nm step.
The concentrations of compounds in PBS filtrate are calculated using a dedicated Microsoft Excel calculation script. Proper absorbance wavelengths for calculations are selected for each compound manually based on absorbance maximums (absolute absorbance unit values for the minimum and maximum concentration points within 0-3 OD range). Each of the final datasets is additionally visually evaluated by the operator and goodness of fit (R2) is calculated for each calibration curve. […] This method is not suitable for liquid (at 25° C.) substances (were not present among the tested compounds). Table 3A provides the kinetic solubility for some of the exemplified compounds.

[4] = with SOS, read-out: KRas Q61H mutant + SOS: % inh.
[5] = without SOS, read-out: KRas Q61H mutant: % inh.

SMILES | inhibition at 20 µM [1, 4] [%] | inhibition at 20 µM [1, 5] [%] | % inh of ERK1/2 phosphorylation in PANC-1 [2] | solubility kinetic at 2 h [3] [µM] | pIC50 ([1]; with SOS)
CO[C@@H]1CC[C@@H](Nc2nc(-c3nccn3C)nc3sc(-c4ccn(C(C)C)n4)c(C)c23)C1 (racemic) [Compound 33, rac-6-(1-Isopropyl-1H-pyrazol-3-yl)-N-((1R,3R)-3-methoxycyclopentyl)-5-methyl-2-(1-methyl-1H-imidazol-2-yl)thieno[2,3-d]pyrimidin-4-amine] | 76 to 100 | 76 to 100 | D (76-100% inhibition) | 49 | 
COC1CCN(c2nc(-c3nccn3C)nc3sc(-c4ccn(C(C)C)n4)c(C)c23)C1 (racemic) [Compound 34, rac-6-(1-Isopropyl-1H-pyrazol-3-yl)-4-(3-methoxypyrrolidin-1-yl)-5-methyl-2-(1-methyl-1H-imidazol-2-yl)thieno[2,3-d]pyrimidine] | 76 to 100 | 76 to 100 | D (76-100% inhibition) | > 400 | 
COCC1CCN(c2nc(-c3nccn3C)nc3sc(-c4ccn(C(C)C)n4)c(C)c23)C1 (racemic) [Compound 38, rac-6-(1-Isopropyl-1H-pyrazol-3-yl)-4-(3-(methoxymethyl)pyrrolidin-1-yl)-5-methyl-2-(1-methyl-1H-imidazol-2-yl)thieno[2,3-d]pyrimidine] | 76 to 100 | 76 to 100 | D (76-100% inhibition) | > 400 | 
COC1CCCN(c2nc(-c3nccn3C)nc3sc(-c4ccn(C(C)C)n4)c(C)c23)C1 (racemic) [Compound 40, rac-6-(1-Isopropyl-1H-pyrazol-3-yl)-4-(3-methoxypiperidin-1-yl)-5-methyl-2-(1-methyl-1H-imidazol-2-yl)thieno[2,3-d]pyrimidine] | 76 to 100 | 51 to 75 | D (76-100% inhibition) | 82 | 
CO[C@H]1CC(Nc2nc(-c3nccn3C)nc3sc(-c4ccn(C(C)C)n4)c(C)c23)C[C@@H]1OC (racemic) [Compound 44, rac-N-((3S,4S)-3,4-Dimethoxycyclopentyl)-6-(1-isopropyl-1H-pyrazol-3-yl)-5-methyl-2-(1-methyl-1H-imidazol-2-yl)thieno[2,3-d]pyrimidin-4-amine] | 76 to 100 | 76 to 100 | D (76-100% inhibition) | 76 | 
COC[C@@H]1CC[C@@H]1CNc1nc(-c2nccn2C)nc2sc(-c3ccn(C(C)C)n3)c(C)c12 (racemic) [Compound 63, rac-6-(1-Isopropyl-1H-pyrazol-3-y)-N-(((1S,2R)-2-(methoxymethyl)cyclobutyl)methyl)-5-methyl-2-(1-methyl-1H-imidazol-2-yl)thieno[2,3-d]pyrimidin-4-amine] | 26 to 50 | 51 to 75 | D (76-100% inhibition) | 18 | 
CO[C@H]1CC[C@@H](Nc2nc(-c3ccccn3)nc3sc(-c4ccn(C(C)C)n4)c(C)c23)C1 (racemic) [Compound 69, Rac-6-(1-isopropyl-1H-pyrazol-3-yl)-N-((1R,3S)-3-methoxycyclopentyl)-5-methyl-2-(pyridine-2-yl)thieno[2,3-d]pyrimidin-4-amine] | 76 to 100 | 76 to 100 | D (76-100% inhibition) | 79 | 
COCCCNc1nc(-c2nccn2C)nc2sc(-c3ccn(C(C)C)n3)c(C)c12 [Compound 36, 6-(1-Isopropyl-1H-pyrazol-3-yl)-N-(3-methoxypropyl)-5-methyl-2-(1-methyl-1H-imidazol-2-yl)thieno[2,3-d]pyrimidin-4-amine] | 76 to 100 | 76 to 100 | C (51-75% inhibition) | 268 | 
COc1cc(Nc2nc(-c3nccn3C)nc3sc(-c4ccn(C(C)C)n4)c(C)c23)ncn1 [Compound 66, 6-(1-Isopropyl-1H-pyrazol-3-yl)-N-(6-methoxypyrimidin-4-yl)-5-methyl-2-(1-methyl-1H-imidazol-2-yl)thieno[2,3-d]pyrimidin-4-amine] | 26 to 50 | 51 to 75 | 0 (0% inhibition) | 4 | 
CO[C@@H]1CC[C@H](Nc2nc(-c3nccn3C)nc3sc(-c4ccn(C(C)C)n4)c(-c4ccccc4)c23)C1 [Example 4, 6-(1-isopropyl-1H-pyrazol-3-yl)-N-((1S,3R)-3-methoxycyclopentyl)-2-(1-methyl-1H-imidazol-2-yl)-5-phenylthieno[2,3-d]pyrimidin-4-amine] | 76 to 100 | 51 to 75 | D (76-100% inhibition) | 5 | 5.30 to 6.00
